From the NIST ThermoML archive (doi:10.1021/je900614f)
Numbers after ± are expanded uncertainties.

Conditions: Crystal; visual observation

- Triple point temperature: 407 ± 1 K
Structure (SMILES): CCOc1ccc(NC(C)=O)cc1 [N-(4-ethoxyphenyl)ethanamide]
